Source: patent publication US10351509B2, “Fenfluramine compositions and methods of preparing the same” (priority 2015, dated 2019)
Like-named read-outs stand apart in the source and are kept apart here. Marks after values point to notes of the source that are not given here.

Tests used:
Solid stability by HPLC = assay type: physicochemical; settings: 8 weeks at 40° C., 60° C. and 80° C.; 7 days at 150° C.; all conditions
[1] = pKa (water) of drug substance
[2] = Holding at approximately 170° C., analysis by XRPD, DSC and 1H NMR; assay type: physicochemical; settings: held at approximately 170° C. for several hours
Experimental: Holding Fenfluramine HCl at approximately 170° C. for several hours causes a melt and evaporation event to take place with recombination and cooling to provide a white solid.

Solution pH (water) = assay type: physicochemical
[3] = Hygroscopicity by Dynamic Vapor Sorption (DVS); assay type: physicochemical
[4] = Stability analysis of the salt (Form 1) under temperature/humidity and photostability conditions; assay type: physicochemical; settings: one week at 40° C./0% RH, three weeks at 40° C./75% RH, and photostability conditions
Text: Fenfluramine HCl is developed as a single polymorph Form 1. A polymorphism and pre-formulation study has been conducted. Under a wide range of solvents and conditions crystalline material is produced of the same polymorph Form 1 based on a well-defined XRPD pattern and a consistent reproducible endotherm by DSC analysis. A summary of the chemophysical properties of Fenfluramine HCl from this study is provided below. Tabulated data includes example diffractograms, DSCs, and micrographs.

[5] = for Parent remaining: 168 h
[6] = Solubility in organic solvents; settings: 25 °C, organic solvent or mixture

In the case of `CCNC(C)Cc1cccc(C(F)(F)F)c1.Cl` (racemic) [Fenfluramine HCl, N-ethyl-α-methyl-3-(trifluoromethyl)-benzeneethanamine hydrochloride (1:1)], the “Solid Stability: new impurities >0.1% by HPLC” value (Solid stability by HPLC) is reported as 150 °C All conditions, no new impurities >0.1% by, the pKa [1] is reported as 10.2 to 10.4 and the “Change after melt and evaporation event (XRPD, DSC, 1H NMR)” value [2] is reported as “no change in chemical or physical form, purity, or dissociation”. For the same compound, the solubility (Aqueous solubility; 0.9% NaCl in water, 25 °C, saline or isotonic) was 23 mg/mL, the solubility (Aqueous solubility; pH 1.73 buffer, 25 °C, pH 1.73, simulated gastric fluid) was 25.3 mg/mL and the solubility (Aqueous solubility; pH 1.73 buffer, 37 °C, pH 1.73, simulated gastric fluid) was 53.7 mg/mL. It also gave a solubility (Aqueous solubility; pH 3.43 buffer, 25 °C, pH 3.43, aqueous buffer) of 29.5 mg/mL, a solubility (Aqueous solubility; pH 3.43 buffer, 37 °C, pH 3.43, aqueous buffer) of 62 mg/mL and a solubility (Aqueous solubility; pH 6.41 buffer, 25 °C, pH 6.41, aqueous buffer) of 37.4 mg/mL. The solubility (Aqueous solubility; pH 6.41 buffer, 37 °C, pH 6.41, aqueous buffer) was 95.6 mg/mL, the solubility (Aqueous solubility; water, 25 °C, pH 6.69, water) was 54.1 mg/mL and the solubility (Aqueous solubility; water, 37 °C, pH 6.69, water) was 71.2 mg/mL. For the same compound, the “Solution pH (water)” value (Solution pH (water)) was 6.69, the “Hygroscopicity (Dynamic Vapor Sorption (DVS))” value (shortened to “Hygroscopicity”) ([3]; @30% RH) was “@30% RH: ~0.05%” and the “Hygroscopicity” value ([3]; @60% RH) was “@60% RH: ~0.07%”. For the same compound, the “Hygroscopicity” value ([3]; @90% RH) was “@90% RH: ~0.20%^a)”, the “Stability of the salt: form and new impurities at 0.1% threshold” value [4] was “input Form 1 has been maintained with no new impurities observed at 0.1% threshold” and the “Parent remaining after degradation” value ([5]; 24 h) was 94.42%. It also gave a Parent remaining [5] of 99.90 parent area %, a Parent remaining ([5]; buffer) of 99.73 parent area % and a solubility ([6]; dichloromethane) of 30 to 35 mg/mL. The solubility ([6]; ethanol) was 150 mg/mL and the solubility ([6]; ethyl acetate, tetrahydrofuran, toluene, acetonitrile) was 1 to 5 mg/mL.
